ChEMBL document CHEMBL5108027, “An unanticipated discovery of novel naphthalimidopropanediols as potential broad-spectrum antibacterial members” (Eur J Med Chem, 2022)
Converted amounts (≈) assume the structure as drawn. The source made the active and inactive calls. The rule behind the calls is not given here.

How the values were obtained:
[1] = test system: Pseudomonas aeruginosa; assay: Inhibition of bacterial growth of Pseudomonas aeruginosa at 1 to 2 times MIC; type: functional
[2] = test system: Staphylococcus aureus; assay: Antibacterial activity against Staphylococcus aureus ATCC 29213 measured by Muller-Hinton broth based microdilution assay; type: functional
[3] = Selectivity ratio of HC50 for hemolytic activity in human RBC to MIC for antibacterial activity against Pseudomonas aeruginosa; type: toxicity; conditions: human red blood cells (erythrocytes)
[4] = test system: Pseudomonas aeruginosa; assay: Disruption of membrane integrity in Pseudomonas aeruginosa assessed as increase in nucleic acid leakage by measuring increase in absorbance 1 to 8 times MIC measured for 6 hrs by spectrophotometry; type: functional, organism-based
[5] = test system: Klebsiella pneumoniae; assay: Antibacterial activity against Klebsiella pneumoniae measured by Muller-Hinton broth based microdilution assay; type: functional
[6] = test system: Pseudomonas aeruginosa; assay: Induction of membrane depolarization in Pseudomonas aeruginosa at 0.5 to 2 times MIC measured upto 1 hr by DiSC35 dye-based fluorescence assay; type: functional, organism-based
[7] = test system: Acinetobacter baumannii; assay: Antibacterial activity against Acinetobacter baumannii measured by Muller-Hinton broth based microdilution assay; type: functional
[8] = test system: Pseudomonas aeruginosa; assay: Inhibition of biofilm formation in Pseudomonas aeruginosa at 1 to 8 times MIC measured after 24 hrs by crystal violet staining method; type: functional, organism-based
[9] = test system: Enterococcus faecalis; assay: Antibacterial activity against Enterococcus faecalis measured by Muller-Hinton broth based microdilution assay; type: functional
[10] = test system: Staphylococcus aureus; assay: Antibacterial activity against Staphylococcus aureus ATCC 25923 measured by Muller-Hinton broth based microdilution assay; type: functional
[11] = test system: Pseudomonas aeruginosa; assay: Induction of oxidative stress in Pseudomonas aeruginosa assessed as increase in intracellular ROS level at 1 to 8 times MIC measured after 6 hrs by DCFH-DA staining method; type: functional, organism-based
[12] = test system: Escherichia coli; assay: Antibacterial activity against Escherichia coli ATCC 25922 measured by Muller-Hinton broth based microdilution assay; type: functional
[13] = test system: Pseudomonas aeruginosa; assay: Induction of oxidative stress in Pseudomonas aeruginosa assessed as decrease in GSH activity at 1 to 8 times MIC measured after 6 hrs by Ellman's assay; type: functional, organism-based
[14] = test system: Escherichia coli; assay: Antibacterial activity against Escherichia coli measured by Muller-Hinton broth based microdilution assay; type: functional
[15] = test system: Pseudomonas aeruginosa; assay: Antibacterial activity against Pseudomonas aeruginosa assessed as reduction in metabolic activity at 1 to 8 times MIC measured after 6 hrs by Alamar blue assay; type: functional, organism-based
[16] = test system: Pseudomonas aeruginosa; assay: Disruption of membrane integrity in Pseudomonas aeruginosa assessed as increase in protein leakage by measuring increase in absorbance 1 to 8 times MIC measured for 6 hrs by Bradford assay; type: functional, organism-based
[17] = test system: Pseudomonas aeruginosa; assay: Bactericidal activity against Pseudomonas aeruginosa assessed as reduction in number of colonies at 0.5 to 2 times MIC measured within 6 hrs by time-kill assay; type: functional, organism-based
[18] = Hemolytic activity in human RBC assessed as hemolytic rate at 2 to 512 ug/ml and measured after 1 hr; type: toxicity, cell-based, Erythrocyte; conditions: human red blood cells (erythrocytes), at 2 to 512 µg/mL, dose 2-512 µg/ml, read-out: Activity
[19] = test system: Pseudomonas aeruginosa; assay: Antibacterial activity against Pseudomonas aeruginosa ATCC 27853 measured by Muller-Hinton broth based microdilution assay; type: functional
[20] = test system: Pseudomonas aeruginosa; assay: Antibacterial activity against Pseudomonas aeruginosa measured after 16 passages by resistance development assay; type: functional, organism-based
[21] = test system: Pseudomonas aeruginosa; assay: Antibacterial activity against Pseudomonas aeruginosa measured by Muller-Hinton broth based microdilution assay; type: functional
[22] = Hemolytic activity in human RBC measured after 1 hr; type: toxicity, cell-based, Erythrocyte; conditions: human red blood cells (erythrocytes)
[23] = test system: Staphylococcus aureus; assay: Antibacterial activity against Staphylococcus aureus measured by Muller-Hinton broth based microdilution assay; type: functional
[24] = test system: Pseudomonas aeruginosa; assay: Induction of inner membrane permeabilization in Pseudomonas aeruginosa by measuring increase in fluorescence intensity at 1 to 8 times MIC by calcein-AM/PI staining based fluorescence analysis; type: functional, organism-based
[25] = test system: L929; assay: Cytotoxicity against mouse L929 cells assessed as effect on cell growth at 0.25 to 0.5 ug/ml incubated for 24 hrs by MTT assay; type: toxicity, cell-based; conditions: l929, 24 h, dose 0.25-0.5 µg/ml
[26] = test system: Pseudomonas aeruginosa; assay: Disruption of membrane integrity in Pseudomonas aeruginosa at 8 times MIC by calcein-AM/PI staining based fluorescence analysis; type: functional, organism-based
[27] = test system: Pseudomonas aeruginosa; assay: Antibacterial activity against Pseudomonas aeruginosa assessed as reduction in LDH activity at 1 to 8 times MIC measured after 6 hrs by microplate reader method; type: functional; set-up: scale not given: the % may be the effect or the level left
[28] = test system: Pseudomonas aeruginosa; assay: Induction of outer membrane permeabilization in Pseudomonas aeruginosa preincubated for 30 mins at 1 to 8 times MIC measured by NPN fluorescent dye based assay; type: functional, organism-based
[29] = test system: Pseudomonas aeruginosa; assay: Antibiofilm activity in Pseudomonas aeruginosa at 1 to 8 times MIC measured by Alamar blue assay; type: functional, organism-based
[30] = test system: Staphylococcus aureus; assay: Antibacterial activity against methicillin-resistant Staphylococcus aureus N315 measured by Muller-Hinton broth based microdilution assay; type: functional
[31] = test system: Pseudomonas aeruginosa; assay: Antibacterial activity against Pseudomonas aeruginosa assessed as fold increase in MIC measured after 16 passages by resistance development assay; type: functional
[32] = test system: Staphylococcus aureus; assay: Antibacterial activity against Staphylococcus aureus assessed as fold increase in MIC measured after 16 passages by resistance development assay; type: functional
[33] = test system: Staphylococcus aureus; assay: Disruption of membrane integrity in Staphylococcus aureus at 8 times MIC by calcein-AM/PI staining based fluorescence analysis; type: functional, organism-based
[34] = test system: Staphylococcus aureus; assay: Induction of oxidative stress in Staphylococcus aureus assessed as increase in intracellular ROS level at 1 to 8 times MIC measured after 6 hrs by DCFH-DA staining method; type: functional, organism-based
[35] = test system: Staphylococcus aureus; assay: Induction of inner membrane permeabilization in Staphylococcus aureus by measuring increase in fluorescence intensity at 1 to 8 times MIC by calcein-AM/PI staining based fluorescence analysis; type: functional, organism-based
[36] = test system: Staphylococcus aureus; assay: Induction of oxidative stress in Staphylococcus aureus assessed as decrease in GSH activity at 1 to 8 times MIC measured after 6 hrs by Ellman's assay; type: functional, organism-based
[37] = test system: Staphylococcus aureus; assay: Bactericidal activity against Staphylococcus aureus assessed as reduction in number of colonies at 0.5 to 2 times MIC measured within 6 hrs by time-kill assay; type: functional, organism-based
[38] = test system: Staphylococcus aureus; assay: Antibacterial activity against Staphylococcus aureus measured after 16 passages by resistance development assay; type: functional, organism-based
[39] = test system: Staphylococcus aureus; assay: Antibiofilm activity in Staphylococcus aureus at 1 to 8 times MIC measured by Alamar blue assay; type: functional, organism-based
[40] = test system: Staphylococcus aureus; assay: Disruption of membrane integrity in Staphylococcus aureus assessed as increase in nucleic acid leakage by measuring increase in absorbance 1 to 8 times MIC measured for 6 hrs by spectrophotometry; type: functional, organism-based
[41] = test system: Staphylococcus aureus; assay: Disruption of membrane integrity in Staphylococcus aureus assessed as increase in protein leakage by measuring increase in absorbance 1 to 8 times MIC measured for 6 hrs by Bradford assay; type: functional, organism-based
[42] = test system: Staphylococcus aureus; assay: Inhibition of bacterial growth of Staphylococcus aureus at 1 to 2 times MIC; type: functional
[43] = test system: Staphylococcus aureus; assay: Inhibition of biofilm formation in Staphylococcus aureus at 1 to 8 times MIC measured after 24 hrs by crystal violet staining method; type: functional, organism-based
[44] = test system: Staphylococcus aureus; assay: Antibacterial activity against Staphylococcus aureus assessed as reduction in metabolic activity at 1 to 8 times MIC measured after 6 hrs by Alamar blue assay; type: functional, organism-based
[45] = test system: Staphylococcus aureus; assay: Induction of membrane depolarization in Staphylococcus aureus at 0.5 to 2 times MIC measured upto 1 hr by DiSC35 dye-based fluorescence assay; type: functional, organism-based
[46] = test system: Staphylococcus aureus; assay: Antibacterial activity against Staphylococcus aureus assessed as reduction in LDH activity at 1 to 8 times MIC measured after 6 hrs by microplate reader method; type: functional; set-up: scale not given: the % may be the effect or the level left
[47] = Selectivity ratio of HC50 for hemolytic activity in human RBC to MIC for antibacterial activity against Staphylococcus aureus; type: toxicity; conditions: human red blood cells (erythrocytes)

| SMILES | inhibition [1] | MIC [2] | selectivity ratio [3] | Activity [4] | MIC [5] | Activity [6] | MIC [7] | inhibition [8] | MIC [9] | MIC [10] | Activity [11] | MIC [12] | MIC [14] | hemolysis at 1 h [18] | MIC [19] | MIC [21] | HC50 at 1 h [22] | MIC [23] | Activity [25] | MIC [30] | other results |
| --- | --- | --- | --- | --- | --- | --- | --- | --- | --- | --- | --- | --- | --- | --- | --- | --- | --- | --- | --- | --- | --- |
| COc1ccc(/C=N/Nc2ccc3c4c(cccc24)C(=O)N(C(CO)CO)C3=O)cc1 | Active | 128 µg/mL (≈ 305 µM) | > 2000 | Active | 32 µg/mL (≈ 76.3 µM) | Active | 64 µg/mL (≈ 153 µM) | Active | 64 µg/mL (≈ 153 µM) | 64 µg/mL (≈ 153 µM) | Active | 64 µg/mL (≈ 153 µM) | 16 µg/mL (≈ 38.1 µM) | < 5% | 2 µg/mL (≈ 4.77 µM) | 0.5 µg/mL (≈ 1.19 µM) | > 1000 µg/mL | 32 µg/mL (≈ 76.3 µM) | Non-Toxic | 64 µg/mL (≈ 153 µM) | Activity [13]: Active; Activity [15]: Active; Activity [16]: Active; Activity [17]: Active; Activity [20]: Active; Activity [24]: Active; Activity [26]: Active; Activity [27]: 70%; Activity [28]: Active; Activity [29]: Active |
| CCn1cc(C(=O)O)c(=O)c2cc(F)c(N3CCNCC3)cc21 [NORFLOXACIN] | – | 16 µg/mL (≈ 50.1 µM) | – | – | 4 µg/mL (≈ 12.5 µM) | – | 1 µg/mL (≈ 3.13 µM) | – | 8 µg/mL (≈ 25.1 µM) | 16 µg/mL (≈ 50.1 µM) | – | 4 µg/mL (≈ 12.5 µM) | 2 µg/mL (≈ 6.26 µM) | – | 2 µg/mL (≈ 6.26 µM) | 4 µg/mL (≈ 12.5 µM) | – | 8 µg/mL (≈ 25.1 µM) | – | 16 µg/mL (≈ 50.1 µM) | fold change (FC) [31]: 128; fold change (FC) [32]: 64 |
| O=C1c2cccc3c(N/N=C/c4ccc5ccccc5c4)ccc(c23)C(=O)N1C(CO)CO | Active | 128 µg/mL (≈ 291 µM) | > 2000 | Active | 32 µg/mL (≈ 72.8 µM) | Active | 64 µg/mL (≈ 146 µM) | Active | 64 µg/mL (≈ 146 µM) | 64 µg/mL (≈ 146 µM) | Active | 32 µg/mL (≈ 72.8 µM) | 16 µg/mL (≈ 36.4 µM) | < 5% | 1 µg/mL (≈ 2.28 µM) | 0.5 µg/mL (≈ 1.14 µM) | > 1000 µg/mL | 4 µg/mL (≈ 9.1 µM) | Non-Toxic | 64 µg/mL (≈ 146 µM) | Activity [13]: Active; Activity [15]: Active; Activity [16]: Active; Activity [17]: Active; Activity [20]: Active; Activity [24]: Active; Activity [26]: Active; Activity [27]: 70%; Activity [28]: Active; Activity [29]: Active |
| O=C1c2cccc3c(N/N=C/c4cccc(Cl)c4)ccc(c23)C(=O)N1C(CO)CO | – | 8 µg/mL (≈ 18.9 µM) | – | – | 8 µg/mL (≈ 18.9 µM) | – | 64 µg/mL (≈ 151 µM) | – | 64 µg/mL (≈ 151 µM) | 32 µg/mL (≈ 75.5 µM) | – | 32 µg/mL (≈ 75.5 µM) | 64 µg/mL (≈ 151 µM) | < 5% | 2 µg/mL (≈ 4.72 µM) | 64 µg/mL (≈ 151 µM) | > 1000 µg/mL | 0.25 µg/mL (≈ 0.59 µM) | Non-Toxic | 64 µg/mL (≈ 151 µM) | Activity [33]: Active; Activity [34]: Active; Activity [35]: Active; Activity [36]: Active; Activity [37]: Active; Activity [38]: Active; Activity [39]: Active; Activity [40]: Active; Activity [41]: Active; inhibition [42]: Active; inhibition [43]: Active; Activity [44]: Active; Activity [45]: Active; Activity [46]: 70%; selectivity ratio [47]: > 4000 |
| CCOC(=O)Cn1cc(/C=N/Nc2ccc3c4c(cccc24)C(=O)N(C(CO)CO)C3=O)c2ccccc21 | – | 8 µg/mL (≈ 15.5 µM) | – | – | 4 µg/mL (≈ 7.77 µM) | – | 32 µg/mL (≈ 62.2 µM) | – | 64 µg/mL (≈ 124 µM) | 32 µg/mL (≈ 62.2 µM) | – | 32 µg/mL (≈ 62.2 µM) | 64 µg/mL (≈ 124 µM) | < 5% | 8 µg/mL (≈ 15.5 µM) | 64 µg/mL (≈ 124 µM) | > 1000 µg/mL | 0.25 µg/mL (≈ 0.486 µM) | Non-Toxic | 16 µg/mL (≈ 31.1 µM) | Activity [33]: Active; Activity [34]: Active; Activity [35]: Active; Activity [36]: Active; Activity [37]: Active; Activity [38]: Active; Activity [39]: Active; Activity [40]: Active; Activity [41]: Active; inhibition [42]: Active; inhibition [43]: Active; Activity [44]: Active; Activity [45]: Active; Activity [46]: 70%; selectivity ratio [47]: > 4000 |
